According to article PMC9607081 (Membranes, 2022):

What was measured:
[1] = target: T1, human GlyR α1 subunit P146 (CysL) substituted with CFP (Homo sapiens, UniProt P23415, P174X); assay: TEVC, oocytes, nonsense suppression, P146 CFP; assay type: cell-based
T1 sequence (P23415 29-457 P174X): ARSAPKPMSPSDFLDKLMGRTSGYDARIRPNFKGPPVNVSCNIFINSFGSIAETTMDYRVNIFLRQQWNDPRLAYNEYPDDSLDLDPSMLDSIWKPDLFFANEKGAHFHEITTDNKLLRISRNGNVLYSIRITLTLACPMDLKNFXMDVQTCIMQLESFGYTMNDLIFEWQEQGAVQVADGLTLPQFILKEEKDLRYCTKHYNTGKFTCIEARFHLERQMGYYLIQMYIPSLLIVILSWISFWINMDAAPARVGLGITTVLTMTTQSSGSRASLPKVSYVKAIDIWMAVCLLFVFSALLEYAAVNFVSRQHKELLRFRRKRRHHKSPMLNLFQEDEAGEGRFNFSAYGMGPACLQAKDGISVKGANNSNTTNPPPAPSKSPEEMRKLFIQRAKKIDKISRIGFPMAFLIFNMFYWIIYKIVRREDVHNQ
Description: (§1) The cDNA for the human GlyR α1 subunit was in pGEMHE (ThermoFischer Scientific, Bishops Stortford, UK). Site-directed mutagenesis was performed using QuikChange (Agilent Technologies, Milton Keynes, UK) to generate the appropriate codon. For non-canonical amino acid mutants and conventional mutants generated by nonsense suppression, the site of interest was mutated to the TAG stop codon. Receptor mRNA was then prepared by in vitro runoff transcription using the Ambion T7 mMessage mMachine kit (ThermoFischer Scientific, Bishops Stortford, UK). Noncanonical amino acids were ligated to tRNA as previously described.
(§2) Stage V-VI oocytes of Xenopus laevis were harvested and injected with RNAs as described previously. For nonsense suppression experiments, each cell was injected with 50–100 ng each of receptor mRNA and tRNA charged with the appropriate Pro analogue ~48 h before recording. For wild type and conventional mutants, each cell received a single injection of 10–25 ng of receptor mRNA ~24 h before recording. Injection volumes were 50–100 nL per cell.
(§3) As a negative control for suppression experiments at each site, unligated tRNA was co-injected with mRNA in the same manner as charged tRNA. […] Pro recovery (injecting tRNA charged with Pro to regenerate a wild type channel via nonsense suppression) was used alongside Pro analogues as a positive control.
(§4) Two-electrode voltage clamping of Xenopus oocytes was performed using standard electrophysiological procedures as previously, using an OpusXpress system (Axon Instruments, Inc., Union City, CA, USA). All experiments were performed at 22–25 °C. […] The holding potential was −60 mV unless otherwise specified. […] Data were analysed using Prism (GraphPad Software Inc., San Diego, CA, USA), fitting concentration-response data to the four-parameter logistic equation. Statistical analysis was performed using ANOVA with a Dunnett’s multiple comparisons post test.

[2] = target: T2, human GlyR α1 subunit P30A (Homo sapiens, UniProt P23415, P58A); assay: Two-electrode voltage clamp of Xenopus oocytes expressing P30A GlyR; assay type: cell-based; details: n = 5
T2 construct: expressed in transfected cells; host or cells: Xenopus laevis oocytes injected with receptor mRNA
Description: Injection volumes were 50–100 nL per cell.
All experiments were performed at 22–25 °C. […] The holding potential was −60 mV unless otherwise specified.

[3] = target: T3, human GlyR α1 subunit P146 (CysL) substituted with Pip (Homo sapiens, UniProt P23415, P174X); assay: TEVC, oocytes, nonsense suppression, P146 Pip; assay type: cell-based; details: for EC50: n = 3
T3 sequence (P23415 29-457 P174X): T1 sequence (P23415 29-457 P174X)
Description: as §1, §2, §3, §4

[4] = target: T4, human GlyR α1 subunit P146 (CysL) substituted with 2MeP (Homo sapiens, UniProt P23415, P174X); assay: TEVC, oocytes, nonsense suppression, P146 2MeP; assay type: cell-based; details: for EC50: n = 3
T4 sequence (P23415 29-457 P174X): T1 sequence (P23415 29-457 P174X)
Description: as §1, §2, §3, §4

[5] = target: human GlyR α1 subunit P96 (loopA) substituted with Pro (Homo sapiens, UniProt P23415); details: Table 2, n = 5
Description: as §1, §2, §3, §4

[6] = system: human GlyR α1 subunit P96 (loopA) substituted with Vah
Description: as §1, §2, §3, §4

[7] = system: human GlyR α1 subunit P96 (loopA) substituted with Pip
Description: as §1, §2, §3, §4

[8] = target: human GlyR α1 subunit P30 (α1β1L) substituted with Pro (Homo sapiens, UniProt P23415); details: Table 2, n = 6
Description: as §1, §2, §3, §4

[9] = system: human GlyR α1 subunit P30 (α1β1L) substituted with TFP
Description: as §1, §2, §3, §4

[10] = target: human GlyR α1 subunit P230 (M1) substituted with Vah (Homo sapiens, UniProt P23415); details: Table 2, n = 4
Description: as §1, §2, §3, §4

[11] = system: human GlyR α1 subunit P146 (CysL) substituted with TFP
Description: as §1, §2, §3, §4

[12] = system: human GlyR α1 subunit P96 (loopA) substituted with 3MeP; details: Table 2, P96 3MeP, n = 4
Description: as §1, §2, §3, §4

[13] = system: human GlyR α1 subunit P230 (M1) substituted with Pip
Description: as §1, §2, §3, §4

[14] = system: human GlyR α1 subunit P30 (α1β1L) substituted with 3MeP; details: Table 2, P30 3MeP, n = 4
Description: as §1, §2, §3, §4

[15] = system: human GlyR α1 subunit P30 (α1β1L) substituted with CFP
Description: as §1, §2, §3, §4

[16] = system: human GlyR α1 subunit P230 (M1) substituted with TFP
Description: as §1, §2, §3, §4

[17] = EC50, Table 3, nonsense suppression
[18] = Table 3, n = 3, read-out: % ImaxTau /ImaxGly
[19] = pEC50, Table 3, nonsense suppression
[20] = Table 2, nonsense suppression, n = 4
[21] = Table 2, nonsense suppression, n = 5
[22] = Table 2, nonsense suppression, n = 6

T2 sequence (P23415 29-457 P58A): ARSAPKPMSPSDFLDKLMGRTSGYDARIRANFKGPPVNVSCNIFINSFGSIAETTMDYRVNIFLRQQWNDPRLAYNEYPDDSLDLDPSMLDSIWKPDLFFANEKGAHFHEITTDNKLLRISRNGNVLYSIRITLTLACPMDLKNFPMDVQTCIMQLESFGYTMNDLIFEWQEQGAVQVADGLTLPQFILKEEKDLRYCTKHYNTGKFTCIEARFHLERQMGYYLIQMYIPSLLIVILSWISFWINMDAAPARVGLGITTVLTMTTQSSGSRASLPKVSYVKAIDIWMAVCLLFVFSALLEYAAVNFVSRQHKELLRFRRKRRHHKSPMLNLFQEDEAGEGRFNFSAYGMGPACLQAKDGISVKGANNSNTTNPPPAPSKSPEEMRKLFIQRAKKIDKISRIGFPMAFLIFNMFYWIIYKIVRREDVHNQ
Chain of human GlyR α1 subunit P30 (α1β1L) substituted with Pro (P23415 29-457): as the sequence (P23415 29-457 P58A) above, with A30P counted along it
Chain of human GlyR α1 subunit P96 (loopA) substituted with Pro (P23415 29-457): as the sequence (P23415 29-457 P58A) above, with A30P counted along it
Chain of human GlyR α1 subunit P230 (M1) substituted with Vah (P23415 29-250 limits assumed): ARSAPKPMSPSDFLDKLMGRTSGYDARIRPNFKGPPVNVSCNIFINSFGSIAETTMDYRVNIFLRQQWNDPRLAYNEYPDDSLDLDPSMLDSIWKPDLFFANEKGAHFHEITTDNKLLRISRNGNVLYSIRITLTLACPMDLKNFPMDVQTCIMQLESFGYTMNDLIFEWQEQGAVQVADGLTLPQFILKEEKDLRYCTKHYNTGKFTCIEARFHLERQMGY

NCCS(=O)(=O)O [Tau, taurine]
EC50 [1]: 579 µM
nH ([1]; Table 3, P146 CFP, n = 3): 2.1 ± 0.2
Emax ([1]; Table 3, P146 CFP, n = 3, read-out: % ImaxTau /ImaxGly): 71 ± 3%
EC50 [2]: 1230 µM
ImaxTau/ImaxGly [2]: 60 ± 5%
EC50 [3, 17]: 757 µM
nH ([3]; Table 3, n = 3): 1.8 ± 0.3
Emax [3, 18]: 64 ± 7%
EC50 [3, 19]: 757 µM
EC50 [4, 17]: 3180 µM
nH ([4]; Table 3, n = 3): 2.4 ± 0.6
Emax [4, 18]: 18 ± 2%
EC50 [4, 19]: 3180 µM

NCC(=O)O [Gly, glycine]
nH ([1]; Table 2, P146 CFP, n = 6): 3.7 ± 0.6
nH ([1]; Table 3, P146 CFP, n = 3): 3.0 ± 0.5
nH [5]: 2.7 ± 1.1
nH ([6]; Table 2, n = 4): 1.5 ± 0.3
EC50 [6, 20]: 94 µM
pEC50 [6, 20]: 4.029 ± 0.05 M
nH ([7]; Table 2, n = 4): 2.9 ± 0.3
EC50 [7, 20]: 215 µM
pEC50 [7, 20]: 3.667 ± 0.02 M
nH [8]: 2.9 ± 1.2
nH ([9]; Table 2, n = 5): 2.7 ± 1.3
EC50 [9, 21]: 97 µM
pEC50 [9, 21]: 4.013 ± 0.05 M
nH [10]: 2.6 ± 0.4
nH ([11]; Table 2, n = 5): 2.3 ± 0.4
EC50 [11, 21]: 156 µM
pEC50 [11, 21]: 3.806 ± 0.05 M
nH [12]: 3.0 ± 0.2
EC50 ([12]; nonsense suppression): 514 µM
pEC50 ([12]; nonsense suppression): 3.289 ± 0.02 M
nH ([13]; Table 2, n = 4): 1.1 ± 0.2
EC50 [13, 20]: 68 µM
pEC50 [13, 20]: 4.166 ± 0.08 M
nH [14]: 3.0 ± 2.7
EC50 ([14]; nonsense suppression): 8.9 µM
pEC50 ([14]; nonsense suppression): 5.046 ± 0.05 M
nH ([15]; Table 2, n = 6): 2.8 ± 0.7
EC50 [15, 22]: 150 µM
pEC50 [15, 22]: 3.825 ± 0.06 M
nH ([16]; Table 2, n = 4): 3.0 ± 1.4
EC50 [16, 20]: 125 µM
pEC50 [16, 20]: 3.904 ± 0.06 M
nH ([3]; Table 2, n = 5): 1.9 ± 0.7
nH ([3]; Table 3, n = 3): 2.7 ± 0.9
nH ([4]; Table 2, n = 6): 2.2 ± 0.5
nH ([4]; Table 3, n = 3): 3.6 ± 0.2
